Data published in US9994554B2, “Barbiturate and thiobarbiturate compounds for use in cancer therapy” (NUHOPE, LLC, priority 2011, dated 2018).
“And” between values parts separate entries of the source, which are not always exact repeats. Equal values may be shown once. Read-outs that look alike come from different tables or passages of the source. *1 amine or outer side, *2 acyl side, *3 side chain or, on linkers, in order; H or OH if unused. Where a SMILES comes first, the peptide text is derived from it. Bridges are numbered along the chain shown (N, C = ends). Roman numbers before positions name the chains, in order. [ ]: non-standard residue; d: D form. Actinocin(9to1) = Cc1c2oc3c(C)ccc(C(=O)[*:1])c3nc-2c(C(=O)[*:2])c(N)c1=O; NMeV = CN[C@H](C(=O)O)C(C)C; Sar = CNCC(=O)O

How the values were obtained:
[1] = test system: CCF-STTG1 cells; experiment: FITC-Annexin V/propidium iodide apoptosis assay; type: cell-based, human; conditions: CCF-STTG1, at 0.05 μg/ml (39.8 nM)
Method: An FITC-labeled Annexin V/propidium iodide apoptosis assay kit (Molecular Probes) was used to determine whether CC-I induces apoptosis in an astrocytoma cell line. […] The percentage of apoptotic cells by the CC-I treatment in CCF-STTG1 cells is from 10.9±0.16% at 5 pig/ml ([…]) to 48.7±0.33% at 10 μg/ml (36.2 μM). By comparison, the positive control, actinomycin D, induced apoptosis in 47.8±0.04% of the cells at 0.05 μg/ml (39.8 nM).

[2] = test system: CCF-STTG1; experiment: CCF-STTG1 resazurin cell assay (Example 14); type: cell-based; conditions: Homo sapiens, read-out: Brain - Astrocytoma CCF-STTG1 pXC50 (converted)
Method: (§1) In this assay, cell lines were tested broadly using the same method as the U87 cell line assay of Example 13. NCI-H1299, CCF-STTG1 and Hep G2 cells were obtained from the ATCC. These cell lines were tested as previously described with the following modifications. NCI-H1299, CCF-STTG1 were maintained in RPMI-1640 Medium plus 10% fetal bovine serum and 1% penicillin/streptomycin, while Hep G2 cells were maintained in Eagle's Minimum Essential Medium plus 10% fetal bovine serum and 1% penicillin/streptomycin. Cells were plated at a density of 1×10^4 per ml except CFF-STTG1 cells which were seeded at a density of 2.5×10^4 per ml.

[3] = test system: NCI-H1299; experiment: NCI-H1299 resazurin cell assay (Example 14); type: cell-based; conditions: Homo sapiens, read-out: Lung - Non small cell lung carcinoma NCI-H1299 pXC50 (converted)
Method: as §1

[4] = test system: U87-MG cells; experiment: U87-MG resazurin cell assay (Example 13); type: cell-based; conditions: Homo sapiens, U-87 MG
Method: U87-MG cells were obtained from the ATCC, LGC Standards (#HTB-14). The cells were screened for mycoplasma (Mycoplasma Experience) and maintained in Biowhittaker Alpha MEM (Lonza #BE02-002F+10% dialyzed US FBS serum (Invitrogen #26400-044), 1% Penstrep (Gibco #15140-122).
Compounds to be tested were transferred into column 1 of a hit plate (96-well PPV Greiner #651201). 20 ul of DMSO was added to columns 2 to 11. The top concentration was 10 mM.
Serial dilution, ten-point one in three dilution curves were created using Perkin Elmer Janus (20 ul clear Robopack disposable tips #6000677 used).
2 ul of each of the compounds was transferred by pre-dispensing into black, clear bottom 96-well CellBIND Corning plates (Fisher #DPS-184-030R) using Platemate 2×2 (ThermoFisher Darts #5506).
200 μl of U87-MG cells were added to columns 1 to 11 at a density of 1000 cells per ml, and media only was dispensed into control column 12 using Wellmate (Small bore tubing set #201-30002).
After 5 days (120 hrs) incubation at 37° C. under 5% CO2 in a humidified incubator, the assay was “stopped” by addition of Resazurin sodium salt at 0.5 mM final concentration (Sigma R7017). The plates were incubated for a further 4 hrs before resorufin readout was taken from a Perkin Elmer EnVision, 550 nm excitation (photo550, Barcode 312), 580 nm emission (M580, Barcode 233), Top Mirror BODIPY (D555, Barcode 405).

[5] = test system: Hep G2; experiment: Hep G2 resazurin cell assay (Example 14); type: cell-based; conditions: Homo sapiens, HepG2; read-out: Liver - Hepatocellular carcinoma Hep G2 pXC50 (converted)
Method: as §1

[6] = test system: CCF-STTG1; experiment: cells; conditions: for IC50: Homo sapiens, CCF-STTG1, read-out: IC50 (μM) CCF-STTG1
Method: (§2) Human neuroblastoma cell lines were cultured in Dulbecco's Modified Eagle Medium (DMEM)/F12 media. Human glioma cells were ordered from American Type Culture Collection (ATCC, Manassas, Va.), and maintained in DMEM with 4×10^−3M L-glutamine, 100 U/ml penicillin, 100 μg/ml streptomycin, and 10% fetal bovine serum (FBS). All experiments were performed at 37° C. in 5% CO2 atmosphere under cell culture conditions. Prior to γ-radiation or exposure to chemotherapeutic agents, the glioma cells were plated at a density of 156 to 8,000 cells per well in 96 well plates to account for differences in growth rates, and to obtain similar cell densities for the experimental manipulations, and cultured overnight. Then cells received different dosages of γ-radiation from a ^60Co source GammaCell 220 (Nordion International Inc, Ontario, Canada) or chemotherapeutic agents for another 2-6 days. Cell cytotoxicity assay was determined by MTS [3-(4,5-dimethylthiazol-2-yl)-5-(3-carboxymethoxyphenyl)-2-(4-sulfophenyl)-2H-tetrazolium, inner salt] Cell Proliferation Assay (Promega, Madison, Wis.) or sulforhodamine B (SRB) assay at the end of the exposure period (47, 48).
Temodar®-resistant cell lines were used to screen for compounds having the ability to decelerate the growth of, or kill, Temodar®-resistant cells. The efficacy of over 15,000 different compounds in the Drug Discovery Core at Pennsylvania State Hershey Medical Center was tested on Temodar®-resistant human neuroblastoma SH-SY5Y and human glioma CCF-STTG1 cell lines with a colorimetric cytotoxicity assay, the sulforhodamine B (SRB) assay (53).
(§3) Chemotype moiety compounds of CC-I were also tested on the Temodar-resistant CCF-STTG1 and Temodar®-sensitive U87-MG cell lines. The glioma cell culture and treatment is as described above.
(§4) The human glioma CCF-STTG1 cell lines were plated at a density of 5,000 cells per well in 96 well plates under standard DMEM cell culture conditions and then exposed to different concentrations of CC-I, merbarone, or ICRF-193 for 5 days. Merbarone and ICRF-193 are both topoisomerase II inhibitors (55, 56).

[7] = test system: WT/SH-SY5Y; experiment: Cytotoxicity, WT/SH-SY5Y neuroblastoma; type: cell-based; conditions: wild type HFE transfected human neuroblastoma SH-SY5Y
Method: (§5) Human neuroblastoma cell lines were cultured in Dulbecco's Modified Eagle Medium (DMEM)/F12 media. Human glioma cells were ordered from American Type Culture Collection (ATCC, Manassas, Va.), and maintained in DMEM with 4×10^−3M L-glutamine, 100 U/ml penicillin, 100 μg/ml streptomycin, and 10% fetal bovine serum (FBS). All experiments were performed at 37° C. in 5% CO2 atmosphere under cell culture conditions. Prior to γ-radiation or exposure to chemotherapeutic agents, the glioma cells were plated at a density of 156 to 8,000 cells per well in 96 well plates to account for differences in growth rates, and to obtain similar cell densities for the experimental manipulations, and cultured overnight. […] Cell cytotoxicity assay was determined by MTS [3-(4,5-dimethylthiazol-2-yl)-5-(3-carboxymethoxyphenyl)-2-(4-sulfophenyl)-2H-tetrazolium, inner salt] Cell Proliferation Assay (Promega, Madison, Wis.) or sulforhodamine B (SRB) assay at the end of the exposure period (47, 48).

[8] = test system: SW1088; experiment: Cytotoxicity (MTS or SRB assay), SW1088; type: cell-based, human
Method: Human glioma cells were ordered from American Type Culture Collection (ATCC, Manassas, Va.), and maintained in DMEM with 4×10^−3M L-glutamine, 100 U/ml penicillin, 100 μg/ml streptomycin, and 10% fetal bovine serum (FBS). All experiments were performed at 37° C. in 5% CO2 atmosphere under cell culture conditions. […] Then cells received different dosages of γ-radiation from a ^60Co source GammaCell 220 (Nordion International Inc, Ontario, Canada) or chemotherapeutic agents for another 2-6 days. Cell cytotoxicity assay was determined by MTS [3-(4,5-dimethylthiazol-2-yl)-5-(3-carboxymethoxyphenyl)-2-(4-sulfophenyl)-2H-tetrazolium, inner salt] Cell Proliferation Assay (Promega, Madison, Wis.) or sulforhodamine B (SRB) assay at the end of the exposure period (47, 48).

[9] = test system: U251; experiment: Cytotoxicity (MTS or SRB assay), U251; type: cell-based; conditions: U-251; human astrocytoma or glioblastoma cell line
Method: as §5

[10] = test system: C282Y/SH-SY5Y; experiment: cells; type: cell-based; conditions: C282Y HFE transfected human neuroblastoma SH-SY5Y
Method: as §5

[11] = test system: U87-MG; experiment: cells; conditions: Homo sapiens, U-87 MG, read-out: IC50 (μM) U87-MG
Method: as §2, §3, §4

[12] = test system: SVGp12; experiment: Cytotoxicity, SVGp12; type: cell-based; conditions: SVGp12; SV40 transformed human astrocyte cell line
Method: as §5

[13] = test system: MCF7; experiment: Cytotoxicity, MCF7; type: cell-based; conditions: MCF7; human breast adenocarcinoma cell line
Method: as §5

[14] = test system: MCF10A; experiment: Cytotoxicity, MCF10A; type: cell-based, human; conditions: Homo sapiens, MCF-10A; immortalized, non-transformed mammary epithelial cell line
[15] = test system: OVCAR-3; experiment: Cytotoxicity, ovarian cancer cells; type: cell-based; conditions: OVCAR-3; human ovarian carcinoma cell line
Method: To assess the effect of CC-I on the ovarian cancer cells, the cells were cultured overnight at a density of 5,000 to 10,000 cells per well in 96 well plates. Then the cells were treated with different concentrations of CC-I (Formula IV) or Formula V for another 3-6 days before cytotoxicity assay using MTS or SRB assay. The IC50 or LD50, 50% inhibition or lethal dose, of compounds is also determined using statistical software (GraphPad) as a general indicator of toxicity.

[16] = U87-MG, 5 days (120 hrs) incubation, read-out: Activity Score (Mean pXC50) (converted)
[17] = read-out: Brain - Glioblastoma U87 pXC50 (converted)

Row | Compound | IC50 [2] | IC50 [3] | IC50 [4, 16] | IC50 [4, 17] | IC50 [5] | further results
1 | Cc1c2oc3c(C)ccc(C(=O)N[C@@H]4C(=O)N[C@H](C(C)C)C(=O)N5CCC[C@H]5C(=O)N(C)CC(=O)N(C)[C@@H](C(C)C)C(=O)O[C@@H]4C)c3nc-2c(C(=O)N[C@@H]2C(=O)N[C@H](C(C)C)C(=O)N3CCC[C@H]3C(=O)N(C)CC(=O)N(C)[C@@H](C(C)C)C(=O)O[C@@H]2C)c(N)c1=O [actinomycin D, reference compound] (I: T[dV]P[Sar][NMeV] / II: T[dV]P[Sar][NMeV]; ester I:1-I:C, II:1-II:C; linker I:N-II:N via Actinocin(9to1)) |  |  |  |  |  | percentage of apoptotic cells [1]: 47.8±0.04%
2 | CCN1C(=O)C(=C/C=C/c2ccccc2)C(=O)N(CC)C1=S [DDD00124821] | 10 to 31.6 µM | 10 to 31.6 µM | 31.6 to 100 µM | 31.6 to 100 µM | > 100 µM | 
3 | Cn1nnc2c(C(N)=O)ncn2c1=O [Temodar ®, Temozolomide, reference compound] | > 100 µM | > 100 µM |  | 10 to 31.6 µM | > 100 µM | IC50 [6]: 306 µM; IC50 [7]: 103 µM; IC50 ([8]; SW1088, human astrocytoma or glioblastoma cell line, read-out: IC50 (μM) SW1088): 29.5 µM; IC50 [9]: 47.2 µM; IC50 [10]: 92 µM; IC50 [11]: 13.6 µM
4 | O=C1NC(=S)NC(=O)C1=C/C=C/c1ccccc1 [Formula V] |  |  |  |  |  | IC50 [12]: 1.6 µM; IC50 [6]: 3 µM; cytotoxicity to CCF-STTG1 cell lines (in words) ([6]; Temodar-resistant CCF-STTG1): greatest toxicity; IC50 ([8]; Homo sapiens, SW1088, read-out: IC50 (μM) SW1088): 1.2 µM; LD50 ([8]; SW-1088 astrocytoma cells): 0.3 μg/ml and 1.2 μM; IC50 [9]: 2.5 µM; IC50 [13]: 3.2 µM; IC50 [14]: 1.7 µM; IC50 [15]: 4.3 µM; IC50 [11]: 1.8 µM
5 | CCN1C(=O)C(=C/C=C/c2ccco2)C(=O)N(CC)C1=O [DDD00124802] | 31.6 to 100 µM | 1 to 10 µM | 10 to 31.6 µM | 31.6 to 100 µM | 10 to 31.6 µM | 
6 | CCN1C(=O)NC(=O)/C(=C\C=C\c2ccco2)C1=O [DDD00124808] | 10 to 31.6 µM | 1 to 10 µM | 10 to 31.6 µM | 10 to 31.6 µM | 10 to 31.6 µM | 
7 | CCN1C(=O)C(=C/C=C/c2ccccc2)C(=O)N(CC)C1=O [DDD00125643] | 1 to 10 µM |  | 1 to 10 µM | 1 to 10 µM | 10 to 31.6 µM | 
8 | O=C1NC(=O)C(=C/C=C/c2ccco2)C(=O)N1 [DDD00124807] | 10 to 31.6 µM | 1 to 10 µM | 10 to 31.6 µM | 10 to 31.6 µM | 10 to 31.6 µM | 
9 | O=C1NC(=S)NC(=O)C1=C/C=C/c1ccco1 [DDD00124818] | 10 to 31.6 µM | 1 to 10 µM | 10 to 31.6 µM | 10 to 31.6 µM | > 100 µM | 
10 | CCN1C(=O)NC(=O)/C(=C\C=C\c2ccccc2)C1=O [DDD00124809] | 1 to 10 µM |  | 1 to 10 µM | 1 to 10 µM | 1 to 10 µM | 
